Data published in patent US20230103462A1, “TOPICAL PHARMACEUTICAL COMPOSITION IN GEL FORM COMPRISING AT LEAST AMITRIPTYLINE FOR USE IN THE TREATMENT OF NEUROPATHIC PHANTOM LIMB PAIN” (priority 2021, published 2023).

Assay: Comparative ex vivo study of the percutaneous absorption of amitriptyline (Frantz cell)
Format: in vitro ADME
Conditions: human skin ex vivo, compositions with 10% amitriptyline hydrochloride
Protocol: Comparative ex vivo study of the percutaneous absorption of amitriptyline in a formulation A in aqueous gel form (invention) and in a formulation B in cream form (comparative). Each of compositions A and B was applied on separate human skin samples. For each composition, the experiment was repeated 3 times with 3 skin samples from 3 different donors, i.e., 9 samples. The skin samples are mounted in a Frantz cell and are heated to a surface temperature of 32° C.±1° C. Composition A or B is spread evenly using a spatula on each skin sample at a rate of 10 mg per cell, corresponding to 5 mg/cm^2 of skin. The skin samples are rinsed 16 hours after application. Each skin sample was placed with a tweezers on a paper towel (dermis facing downward). The stratum corneum is removed using adhesive strips. After removing the stratum corneum, the sample is perforated. The epidermis is then separated from the dermis. Each of them is placed in separate bottles. The different samples were then extracted.

CN(C)CCC=C1c2ccccc2CCc2ccccc21 [amitriptyline, Amitriptyline]
systemic passage of amitriptyline: less than 0.1 % of the administered dose
